Patent US20100002929A1, “Image-based methods for measuring global nuclear patterns as epigenetic markers of cell differentiation” (The Charles Stark Draper Laboratory, Inc., priority 2004, published 2010)

Columns and labels:
hESC = assay: Chromatin mobility by time-lapse confocal microscopy of GFP-H2B transfected hESC; format: cell-based, human; details: hESC transfected with GFP-H2B; data not shown
Protocol: Chromatin movement was further analyzed in hESC transfected with the fluorescent histone GFP-H2B (FIG. 4). Single confocal slices at 0.4 μm spacing (FIG. 4A) show density variations, including low-density voids (arrow in FIG. 4A, 0.4 μm). The movement of cell-specific bright chromatin densities was analyzed by overlaying images at 0, 5 and 10 min, assigned to the blue, green and red channels respectively (FIGS. 4B-F) and by vector analysis where movement of bright spots was traced with a yellow line at 1 min intervals and red arrows were placed at the last position of the spot (FIG. 4G). Different kinds of nuclear movement were detected including internal mixing of chromatin, indicated by movement of bright chromatin domains without envelope deformation (pluripotent hESC, FIG. 4B), deformation of the envelope and chromatin (pluripotent hESC, FIG. 4C), and multidirectional streaming of chromatin (2 day differentiated hESC, FIG. 4D). Long-range coordination of chromatin movement was infrequent in hESC and prevalent, albeit at slower speeds, in differentiated cells. An increase in coherence length was most noticeable in 5-week differentiated hESC (FIG. 4E). In contrast, endothelial cells show small amplitude, sub-em tethered stochastic movement (FIG. 4F) as reported previously for somatic cells (Marshall, Straight et al. 1997). […]

Oct4 promoter = details: combined TSA and 5Aza 2′ deoxycytidine treatment of TE; cited from earlier work
HDAC1 = HDAC1 immunostaining (confocal microscopy) in HeLa cells; details: FIG. 15

## COC(=O)Nc1nc2ccc(C(=O)c3cccs3)cc2[nH]1 [nocodazole]
hESC
  effect on chromatin mobility: no effect on chromatin mobility

## CC(/C=C/C(=O)NO)=C\[C@@H](C)C(=O)c1ccc(N(C)C)cc1 [TSA]
Oct4 promoter
  Oct4 expression: induces Oct4 expression
  Oct4 promoter methylation: hypomethylates the Oct4 promoter
HDAC1
  HDAC1 staining: complete absence of HDAC1 staining

## C=C1[C@@H](C)[C@H]2[C@H](Cc3ccccc3)NC(=O)[C@]23[C@H](OC(C)=O)/C=C/[C@@](C)(O)C(=O)[C@@H](C)C/C=C/[C@H]3[C@@H]1O [cytochalasin D]
hESC
  effect on chromatin mobility: slight acceleration of chromatin mobility

## Nc1ncn([C@H]2C[C@H](O)[C@@H](CO)O2)c(=O)n1 [5Aza 2′ deoxycytidine]
Oct4 promoter
  Oct4 expression: induces Oct4 expression
  Oct4 promoter methylation: hypomethylates the Oct4 promoter
